Assay results taken from patent US20170348369A1, “Plant Extract and Its Therapeutic Use” (Viridis Pharmaceutical Limited, priority 2008, published 2017).

Target: T1, purified human DNA topoisomerase IIα (Homo sapiens, UniProt P11388)
T1 construct: purchased TopoGEN
Test: Inhibition of topoisomerase II activity (TopoGEN Topoisomerase II Drug Screening Kit)
Format: biochemical
Details: cell-free; FIG. 13; 0.3, 3, 30 μg/ml
Description: With the liquid extract ViP-E_Matr'08_1102, prepared according to example 7, the liquid extract ViP-E_Matr08_1106, prepared according to example 8, or the liquid extract ViP-E_Matr'08_1105, prepared according to example 9, […] As positive control etoposide was carried along.
The inhibition of topoisomerase II was determined using purified human DNA topoisomerase Ilα and the “Topoisomerase II Drug Screening Kit” from TopoGEN. Thereby it was proceeded according to the manufacturer's protocol. The DNA was separated by electrophoresis on an agarose gel and visualized under UV light after staining with ethidium bromide. With this approach the relaxed DNA (topoisomers) generated by topoisomerase II could be detected and clearly separated from the supercoiled DNA substrate.

T1 sequence (P11388 whole entry): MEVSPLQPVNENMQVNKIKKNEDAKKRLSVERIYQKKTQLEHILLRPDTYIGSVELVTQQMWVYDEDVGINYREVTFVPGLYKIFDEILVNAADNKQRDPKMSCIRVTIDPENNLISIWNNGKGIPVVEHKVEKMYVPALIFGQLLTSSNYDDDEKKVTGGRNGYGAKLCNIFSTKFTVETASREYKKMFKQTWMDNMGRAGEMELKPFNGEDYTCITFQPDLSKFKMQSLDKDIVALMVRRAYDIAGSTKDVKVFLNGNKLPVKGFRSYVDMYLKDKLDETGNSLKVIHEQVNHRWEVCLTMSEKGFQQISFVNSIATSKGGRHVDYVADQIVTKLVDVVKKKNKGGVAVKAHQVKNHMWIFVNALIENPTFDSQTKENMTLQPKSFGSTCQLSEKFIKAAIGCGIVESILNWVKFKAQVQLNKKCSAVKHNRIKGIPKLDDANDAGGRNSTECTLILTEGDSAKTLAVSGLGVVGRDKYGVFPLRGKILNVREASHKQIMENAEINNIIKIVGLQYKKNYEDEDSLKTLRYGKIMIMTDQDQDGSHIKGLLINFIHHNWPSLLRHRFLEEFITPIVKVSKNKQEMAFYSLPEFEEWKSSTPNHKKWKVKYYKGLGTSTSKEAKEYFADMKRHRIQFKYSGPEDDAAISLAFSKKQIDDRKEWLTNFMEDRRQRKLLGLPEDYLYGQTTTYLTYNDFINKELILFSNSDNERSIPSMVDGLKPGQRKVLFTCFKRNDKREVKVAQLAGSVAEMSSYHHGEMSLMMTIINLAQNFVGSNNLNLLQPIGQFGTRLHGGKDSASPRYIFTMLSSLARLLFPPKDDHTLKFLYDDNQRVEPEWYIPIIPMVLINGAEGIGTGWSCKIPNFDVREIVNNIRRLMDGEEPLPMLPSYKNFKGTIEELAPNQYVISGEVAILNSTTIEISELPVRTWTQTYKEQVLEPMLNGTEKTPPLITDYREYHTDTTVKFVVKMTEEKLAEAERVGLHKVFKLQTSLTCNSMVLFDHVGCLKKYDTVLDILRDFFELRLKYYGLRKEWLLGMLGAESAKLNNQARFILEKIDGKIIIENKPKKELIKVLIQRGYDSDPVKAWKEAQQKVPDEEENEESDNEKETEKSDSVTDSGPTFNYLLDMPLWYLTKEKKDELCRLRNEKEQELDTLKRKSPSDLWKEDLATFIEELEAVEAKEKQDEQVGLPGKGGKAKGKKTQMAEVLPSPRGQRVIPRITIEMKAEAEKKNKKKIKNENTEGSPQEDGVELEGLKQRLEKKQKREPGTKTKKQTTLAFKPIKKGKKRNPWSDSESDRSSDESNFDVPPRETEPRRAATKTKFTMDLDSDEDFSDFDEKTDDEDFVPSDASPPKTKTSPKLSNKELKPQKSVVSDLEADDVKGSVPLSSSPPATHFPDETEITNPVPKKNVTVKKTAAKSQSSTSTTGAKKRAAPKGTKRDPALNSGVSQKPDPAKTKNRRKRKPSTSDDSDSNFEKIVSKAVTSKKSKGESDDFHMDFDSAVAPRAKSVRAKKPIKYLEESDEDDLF

## α-Bisabolol
  inhibition of topoisomerase II activity: did not influence the topoisomerase II activity in all tested concentrations
